Tested on: microfilariae of Dirofilaria immitis
Assay: Dirofilaria immitis, Microfilaria (DiMF) In vitro Assay
Type: cell-based
Conditions: 72 h, read-out: DiMF Minimum Effective Dose (MED), approximately 72 hours incubation, microfilariae assessed for survival or paralysis

Row | Structure (SMILES) | minimal effective concentration [µM]
1 | CC(C)C[C@H]1C(=O)O[C@H](Cc2ccc(Cn3cc(-c4ccccc4)cn3)cc2)C(=O)N(C)[C@@H](CC(C)C)C(=O)O[C@H](C)C(=O)N(C)[C@@H](CC(C)C)C(=O)O[C@H](Cc2ccccc2)C(=O)N(C)[C@@H](CC(C)C)C(=O)O[C@H](C)C(=O)N1C [Example 2-3, (3S,6R,9S,12R,15S,18R,21S,24R)-6-benzyl-3,9,15,21-tetraisobutyl-4,10,12,16,22,24-hexamethyl-18-[[4-[(4-phenylpyrazol-1-yl)methyl]phenyl]methyl]-1,7,13,19-tetraoxa-4,10,16,22-tetrazacyclotetracosane-2,5,8,11,14,17,20,23-octaone] | 0.01 to 0.1
2 | CC(C)C[C@H]1C(=O)O[C@H](Cc2ccc(Cn3ccc(Br)cc3=O)cc2)C(=O)N(C)[C@@H](CC(C)C)C(=O)O[C@H](C)C(=O)N(C)[C@@H](CC(C)C)C(=O)O[C@H](Cc2ccc(Cn3ccc(Br)cc3=O)cc2)C(=O)N(C)[C@@H](CC(C)C)C(=O)O[C@H](C)C(=O)N1C [Example 9-20, (3S,6R,9S,12R,15S,18R,21S,24R)-6,18-bis(4-((4-bromo-2-oxopyridin-1 (2H)-yl)methyl)benzyl)-3,9,15,21-tetraisobutyl-4,10,12,16,22,24-hexamethyl-1,7,13,19-tetraoxa-4,10,16,22-tetraazacyclotetracosan-2,5,8,11,14,17,20,23-octaone] | 0.01 to 0.1
3 | CC(C)C[C@H]1C(=O)O[C@H](Cc2cccc(Cn3ccnc3C3CC3)c2)C(=O)N(C)[C@@H](CC(C)C)C(=O)O[C@H](C)C(=O)N(C)[C@@H](CC(C)C)C(=O)O[C@H](Cc2ccc(Cn3ccnc3C3CC3)cc2)C(=O)N(C)[C@@H](CC(C)C)C(=O)O[C@H](C)C(=O)N1C [Example 7-7, (3S,6R,9S,12R,15S,18R,21S,24R)-6-[[3-[(2-cyclopropylimidazol-1-yl)methyl]phenyl]methyl]-18-[[4-[(2-cyclopropylimidazol-1-yl)methyl]phenyl]methyl]-3,9,15,21-tetraisobutyl-4,10,12,16,22,24-hexamethyl-1,7,13,19-tetraoxa-4,10,16,22-tetrazacyclotetracosane-2,5,8,11,14,17,20,23-octaone] | 0.01 to 0.1
4 | Cc1nn(Cc2ccc(C[C@H]3OC(=O)[C@H](CC(C)C)N(C)C(=O)[C@@H](C)OC(=O)[C@H](CC(C)C)N(C)C(=O)[C@@H](Cc4ccccc4)OC(=O)[C@H](CC(C)C)N(C)C(=O)[C@@H](C)OC(=O)[C@H](CC(C)C)N(C)C3=O)cc2)c(C)c1C [Example 2-11, (3S,6R,9S,12R,15S,18R,21S,24R)-6-benzyl-3,9,15,21-tetraisobutyl-4,10,12,16,22,24-hexamethyl-18-(4-((3,4,5-trimethyl-1H-pyrazol-1-yl)methyl)benzyl)-1,7,13,19-tetraoxa-4,10,16,22-tetraazacyclotetracosan-2,5,8,11,14,17,20,23-octaone] | 0.01 to 0.1
5 | CC(C)C[C@H]1C(=O)O[C@H](Cc2ccc(Cn3cc4c(n3)CCOC4)cc2)C(=O)N(C)[C@@H](CC(C)C)C(=O)O[C@H](C)C(=O)N(C)[C@@H](CC(C)C)C(=O)O[C@H](Cc2ccccc2)C(=O)N(C)[C@@H](CC(C)C)C(=O)O[C@H](C)C(=O)N1C [Example 10-28, (3S,6R,9S,12R,15S,18R,21S,24R)-6-benzyl-18-(4-((6,7-dihydropyrano[4,3-c]pyrazol-2(4H)-yl)methyl)benzyl)-3,9,15,21-tetraisobutyl-4,10,12,16,22,24-hexamethyl-1,7,13,19-tetraoxa-4,10,16,22-tetraazacyclotetracosan-2,5,8,11,14,17,20,23-octaone] | 0.01 to 0.1
6 | CC(C)C[C@H]1C(=O)O[C@H](Cc2cccc(Cn3ccnc3CO)c2)C(=O)N(C)[C@@H](CC(C)C)C(=O)O[C@H](C)C(=O)N(C)[C@@H](CC(C)C)C(=O)O[C@H](Cc2ccc(Cn3ccnc3CO)cc2)C(=O)N(C)[C@@H](CC(C)C)C(=O)O[C@H](C)C(=O)N1C [Example 7-11, (3S,6R,9S,12R,15S,18R,21S,24R)-6-(3-((2-(hydroxymethyl)-1H-imidazol-1-yl)methyl)benzyl)-18-(4-((2-(hydroxymethyl)-1H-imidazol-1-yl)methyl)benzyl)-3,9,15,21-tetraisobutyl-4,10,12,16,22,24-hexamethyl-1,7,13,19-tetraoxa-4,10,16,22-tetraazacyclotetracosan-2,5,8,11,14,17,20,23-octaone] | 0.01 to 0.1
7 | CC(C)C[C@H]1C(=O)O[C@H](Cc2ccc(Cn3cc4c(n3)CCC4)cc2)C(=O)N(C)[C@@H](CC(C)C)C(=O)O[C@H](C)C(=O)N(C)[C@@H](CC(C)C)C(=O)O[C@H](Cc2ccc(Cn3cc4c(n3)CCC4)cc2)C(=O)N(C)[C@@H](CC(C)C)C(=O)O[C@H](C)C(=O)N1C [Example 9-42, (3S,6R,9S,12R,15S,18R,21S,24R)-6,18-bis[[4-(5,6-dihydro-4H-cyclopenta[c]pyrazol-2-ylmethyl)phenyl]methyl]-3,9,15,21-tetraisobutyl-4,10,12,16,22,24-hexamethyl-1,7,13,19-tetraoxa-4,10,16,22-tetrazacyclotetracosane-2,5,8,11,14,17,20,23-octaone] | 0.01 to 0.1
8 | CC(C)C[C@H]1C(=O)O[C@H](Cc2ccc(Cn3ncc4ccccc43)cc2)C(=O)N(C)[C@@H](CC(C)C)C(=O)O[C@H](C)C(=O)N(C)[C@@H](CC(C)C)C(=O)O[C@H](Cc2ccccc2)C(=O)N(C)[C@@H](CC(C)C)C(=O)O[C@H](C)C(=O)N1C [Example 10-26, (3S,6R,9S,12R,15S,18R,21S,24R)-6-(4-((1H-indazol-1-yl)methyl)benzyl)-18-benzyl-3,9,15,21-tetraisobutyl-4,10,12,16,22,24-hexamethyl-1,7,13,19-tetraoxa-4,10,16,22-tetraazacyclotetracosan-2,5,8,11,14,17,20,23-octaone] | 0.01 to 0.1
9 | CC(C)C[C@H]1C(=O)O[C@H](Cc2ccc(Cn3ccnc3-c3ccccc3)cc2)C(=O)N(C)[C@@H](CC(C)C)C(=O)O[C@H](C)C(=O)N(C)[C@@H](CC(C)C)C(=O)O[C@H](Cc2ccc(Cn3ccnc3-c3ccccc3)cc2)C(=O)N(C)[C@@H](CC(C)C)C(=O)O[C@H](C)C(=O)N1C [Example 6-11, (3S,6R,9S,12R,15S,18R,21S,24R)-3,9,15,21-tetraisobutyl-4,6,10,16,18,22-hexamethyl-12,24-bis(4-((2-phenyl-1H-imidazol-1-yl)methyl)benzyl)-1,7,13,19-tetraoxa-4,10,16,22-tetraazacyclotetracosan-2,5,8,11,14,17,20,23-octaone] | 0.01 to 0.1
10 | CC(C)C[C@H]1C(=O)O[C@H](Cc2ccc(N3CCCC(F)(F)C3)cc2)C(=O)N(C)[C@@H](CC(C)C)C(=O)O[C@H](C)C(=O)N(C)[C@@H](CC(C)C)C(=O)O[C@H](Cc2ccc(CN3CCCC(F)(F)C3)cc2)C(=O)N(C)[C@@H](CC(C)C)C(=O)O[C@H](C)C(=O)N1C [Example 9-5, (3S,6R,9S,12R,15S,18R,21S,24R)-6-(4-(3,3-difluoropiperidin-1-yl)benzyl)-18-(4-((3,3-difluoropiperidin-1-yl)methyl)benzyl)-3,9,15,21-tetraisobutyl-4,10,12,16,22,24-hexamethyl-1,7,13,19-tetraoxa-4,10,16,22-tetraazacyclotetracosan-2,5,8,11,14,17,20,23-octaone] | 0.01 to 0.1
11 | CC(C)C[C@H]1C(=O)O[C@H](Cc2ccc(CN3CCOc4cccnc43)cc2)C(=O)N(C)[C@@H](CC(C)C)C(=O)O[C@H](C)C(=O)N(C)[C@@H](CC(C)C)C(=O)O[C@H](Cc2ccccc2)C(=O)N(C)[C@@H](CC(C)C)C(=O)O[C@H](C)C(=O)N1C [Example 10-37, (3S,6R,9S,12R,15S,18R,21S,24R)-6-benzyl-18-[[4-(2,3-dihydropyrido[3,2-b][1,4]oxazin-4-ylmethyl)phenyl]methyl]-3,9,15,21-tetraisobutyl-4,10,12,16,22,24-hexamethyl-1,7,13,19-tetraoxa-4, 10,16,22-tetrazacyclotetracosane-2,5,8,11,14,17,20,23-octaone] | 0.001 to 0.01
12 | CC(C)C[C@H]1C(=O)O[C@H](Cc2ccc(CN3CC(CO)OC3=O)cc2)C(=O)N(C)[C@@H](CC(C)C)C(=O)O[C@H](C)C(=O)N(C)[C@@H](CC(C)C)C(=O)O[C@H](Cc2ccccc2)C(=O)N(C)[C@@H](CC(C)C)C(=O)O[C@H](C)C(=O)N1C (stereo partly drawn) [Example 10-24, (3S,6R,9S,12R,15S,18R,21S,24R)-6-benzyl-18-(4-((5-(hydroxymethyl)-2-oxooxazolidin-3-yl)methyl)benzyl)-3,9,15,21-tetraisobutyl-4,10,12,16,22,24-hexamethyl-1,7,13,19-tetraoxa-4,10,16,22-tetraazacyclotetracosan-2,5,8,11,14,17,20,23-octaone] | 0.01 to 0.1
13 | CC(C)C[C@H]1C(=O)O[C@H](Cc2ccc(CN3CCSCC3)cc2)C(=O)N(C)[C@@H](CC(C)C)C(=O)O[C@H](C)C(=O)N(C)[C@@H](CC(C)C)C(=O)O[C@H](Cc2ccc(CN3CCSCC3)cc2)C(=O)N(C)[C@@H](CC(C)C)C(=O)O[C@H](C)C(=O)N1C [Example 9-2, (3S,6R,9S,12R,15S,18R,21S,24R)-3,9,15,21-tetraisobutyl-4,6,10,16,18,22-hexamethyl-12,24-bis(4-(thiomorpholinomethyl)benzyl)-1,7,13,19-tetraoxa-4,10,16,22-tetraazacyclotetracosan-2,5,8,11,14,17,20,23-octaone] | 0.01 to 0.1
14 | CC(C)C[C@H]1C(=O)O[C@H](Cc2ccc(Cn3ccc(-c4ccccn4)n3)cc2)C(=O)N(C)[C@@H](CC(C)C)C(=O)O[C@H](C)C(=O)N(C)[C@@H](CC(C)C)C(=O)O[C@H](Cc2ccc(Cn3ccc(-c4ccccn4)n3)cc2)C(=O)N(C)[C@@H](CC(C)C)C(=O)O[C@H](C)C(=O)N1C [Example 1b-120, (3S,6R,9S,12R,15S,18R,21S,24R)-3,9,15,21-tetraisobutyl-4,6,10,16,18,22-hexamethyl-12,24-bis(4-((3-(pyridin-2-yl)-1H-pyrazol-1-yl)methyl)benzyl)-1,7,13,19-tetraoxa-4,10,16,22-tetraazacyclotetracosan-2,5,8,11,14,17,20,23-octaone] | 0.01 to 0.1

Source: patent US11331369B2, “Endoparasitic depsipeptides” (Zoetis Services LLC, priority 2017, dated 2022)
